Legend:
[1] = Displacement of [3H]dofetilide from human ERG stably expressed in HEK293 cell membranes assessed as unlabelled dofetilide IC50 at 10 uM measured after 60 mins by microbeta liquid scintillation counting method (Rvb = 9.1 to 11.7 nM)
[2] = Displacement of [3H]dofetilide from human ERG stably expressed in HEK293 cell membranes assessed as unlabelled dofetilide IC50 at 3 uM measured after 60 mins by microbeta liquid scintillation counting method (Rvb = 9.1 to 11.7 nM)
[3] = Displacement of [3H]dofetilide from human ERG stably expressed in HEK293 cell membranes assessed as unlabelled dofetilide IC50 at 1 uM measured after 60 mins by microbeta liquid scintillation counting method (Rvb = 9.1 to 11.7 nM)
[4] = Displacement of [3H]dofetilide from human ERG stably expressed in HEK293 cell membranes assessed as unlabelled dofetilide IC50 at 0.5 uM measured after 60 mins by microbeta liquid scintillation counting method (Rvb = 9.1 to 11.7 nM)

Structure (SMILES) | IC50 [1] | IC50 [2] | other results
O=C(COc1ccc(C(=O)c2cc(Cl)ccc2Br)cc1)Nc1cccc(C(=O)NCC2CC2)c1 | 26 nM | – | –
N#Cc1cccc(NC(=O)COc2ccc(C(=O)c3cc(Cl)ccc3Br)cc2)c1F | – | 13 nM | –
O=C(COc1ccc(C(=O)c2cc(Cl)ccc2Br)cc1)Nc1ccc(Cl)c(C(=O)NCC2CC2)c1 | – | 18 nM | –
O=C(COc1ccc(C(=O)c2cc(Cl)ccc2Br)cc1)Nc1cncc(C(=O)NCC2CC2)c1 | – | – | IC50 [3]: 20 nM
O=C(COc1ccc(C(=O)c2cc(Cl)ccc2Br)cc1)Nc1ccnc(C(=O)NCC2CC2)c1 | – | – | IC50 [4]: 18 nM

Further lines, with some results ahead:

IC50 [1] | IC50 [2] | Structure (SMILES) | other results
36 nM | – | O=C(COc1ccc(C(=O)c2ccccc2Br)cc1)Nc1cccnc1 | –
18 nM | – | O=C(COc1ccc(C(=O)c2cc(Cl)ccc2Br)cc1)Nc1ccnc(F)c1 | –
70 nM | – | N#Cc1cc(NC(=O)COc2ccc(C(=O)c3cc(Cl)ccc3Br)cc2)ccc1F | –
22 nM | – | CNC(=O)c1cccc(NC(=O)COc2ccc(C(=O)c3cc(Cl)ccc3Br)cc2)c1 | –
– | 35 nM | O=C(COc1ccc(C(=O)c2cc(Cl)ccc2Br)cc1)Nc1cccnc1 | –
– | 60 nM | Cc1cc(NC(=O)COc2ccc(C(=O)c3cc(Cl)ccc3Br)cc2)ccn1 | –
– | 11 nM | O=C(COc1ccc(C(=O)c2cc(Cl)ccc2Br)cc1)Nc1cccc(C(=O)NC2CC2)c1 | –

— BindingDB's records for doi:10.1016/j.ejmech.2020.113033 (Leiden University, 2021)
